Measurements: ChEMBL document CHEMBL5634121, “Discovery of novel G9a/GLP covalent inhibitors for the treatment of triple-negative breast cancer” (Eur J Med Chem, 2023)
Active and inactive are the calls of the source. No cut-off for these calls is given here.

Legend:
[1] = test system: MDA-MB-231; test: Antiproliferative activity against human MDA-MB-231 cells incubated for 3 to 5 days by MTT assay; type: functional, cell-based
[2] = test system: 4T1; test: Antiproliferative activity against mouse 4T1 cells incubated for 3 to 5 days by MTT assay; type: functional, cell-based
[3] = test system: MDA-MB-231; test: Antiproliferative activity against human MDA-MB-231 cells after 5 days by MTT assay; type: functional, cell-based; details: MDA-MB-231, 120 h
[4] = test system: MDA-MB-231; test: Inhibition of colony formation in human MDA-MB-231 cells at 1 to 10 uM refreshed every 4 days for 12 days by crystal violet staining based assay; type: functional, cell-based; details: dose 1-10 µM, time 12.0 day
[5] = test system: MDA-MB-231; test: Induction of apoptosis in human MDA-MB-231 cells assessed as viable cells at 20 uM incubated for 72 hrs by Annexin V and PI staining based flow cytometry analysis (reference value: 98.31 %); type: functional; details: read-out: Activity
[6] = test system: MDA-MB-231; test: Induction of apoptosis in human MDA-MB-231 cells assessed as early apoptotic cells at 20 uM incubated for 72 hrs by Annexin V and PI staining based flow cytometry analysis (reference value: 0.92 %); type: functional
[7] = test system: MDA-MB-231; test: Induction of apoptosis in human MDA-MB-231 cells assessed as late apoptotic cells at 20 uM incubated for 72 hrs by Annexin V and PI staining based flow cytometry analysis (reference value: 0.45 %); type: functional
[8] = test system: MDA-MB-231; test: Induction of apoptosis in human MDA-MB-231 cells assessed as necrotic cells at 20 uM incubated for 72 hrs by Annexin V and PI staining based flow cytometry analysis (reference value: 0.32 %); type: functional
[9] = target: T1, Histone-lysine N-methyltransferase EHMT1/EHMT2 (Homo sapiens) (UniProt Q9H9B1+Q96KQ7); test: Inhibition of G9a/GLP in human MDA-MB-231 cells assessed as reduction in H3K9 dimethylation incubated for 3 days by Western blotting analysis; type: cell-based; details: dose 2.5-20 µM, time 3.0 day
[10] = test system: MDA-MB-231; test: Antiproliferative activity against human MDA-MB-231 cells assessed as cell growth inhibition at 20 uM incubated for 1 day followed by compound washout and measured after 1 to 4 days; type: functional, cell-based
[11] = target: T1, Histone-lysine N-methyltransferase EHMT1/EHMT2 (Homo sapiens); test: Inhibition of G9a/GLP in human MDA-MB-231 cells assessed as reduction in H3K9 dimethylation at 20 uM incubated for 1 day followed by compound washout and measured after 1 to 4 days; type: cell-based
[12] = Cytotoxicity against human L02 cells assessed as reduction in cell viability incubated for 2 days by MTT assay; type: toxicity, cell-based
[13] = target: T2, Histone-lysine N-methyltransferase EHMT2 (Homo sapiens) (UniProt Q96KQ7); test: Inhibition of G9a (unknown origin)
T2 sequence (whole entry): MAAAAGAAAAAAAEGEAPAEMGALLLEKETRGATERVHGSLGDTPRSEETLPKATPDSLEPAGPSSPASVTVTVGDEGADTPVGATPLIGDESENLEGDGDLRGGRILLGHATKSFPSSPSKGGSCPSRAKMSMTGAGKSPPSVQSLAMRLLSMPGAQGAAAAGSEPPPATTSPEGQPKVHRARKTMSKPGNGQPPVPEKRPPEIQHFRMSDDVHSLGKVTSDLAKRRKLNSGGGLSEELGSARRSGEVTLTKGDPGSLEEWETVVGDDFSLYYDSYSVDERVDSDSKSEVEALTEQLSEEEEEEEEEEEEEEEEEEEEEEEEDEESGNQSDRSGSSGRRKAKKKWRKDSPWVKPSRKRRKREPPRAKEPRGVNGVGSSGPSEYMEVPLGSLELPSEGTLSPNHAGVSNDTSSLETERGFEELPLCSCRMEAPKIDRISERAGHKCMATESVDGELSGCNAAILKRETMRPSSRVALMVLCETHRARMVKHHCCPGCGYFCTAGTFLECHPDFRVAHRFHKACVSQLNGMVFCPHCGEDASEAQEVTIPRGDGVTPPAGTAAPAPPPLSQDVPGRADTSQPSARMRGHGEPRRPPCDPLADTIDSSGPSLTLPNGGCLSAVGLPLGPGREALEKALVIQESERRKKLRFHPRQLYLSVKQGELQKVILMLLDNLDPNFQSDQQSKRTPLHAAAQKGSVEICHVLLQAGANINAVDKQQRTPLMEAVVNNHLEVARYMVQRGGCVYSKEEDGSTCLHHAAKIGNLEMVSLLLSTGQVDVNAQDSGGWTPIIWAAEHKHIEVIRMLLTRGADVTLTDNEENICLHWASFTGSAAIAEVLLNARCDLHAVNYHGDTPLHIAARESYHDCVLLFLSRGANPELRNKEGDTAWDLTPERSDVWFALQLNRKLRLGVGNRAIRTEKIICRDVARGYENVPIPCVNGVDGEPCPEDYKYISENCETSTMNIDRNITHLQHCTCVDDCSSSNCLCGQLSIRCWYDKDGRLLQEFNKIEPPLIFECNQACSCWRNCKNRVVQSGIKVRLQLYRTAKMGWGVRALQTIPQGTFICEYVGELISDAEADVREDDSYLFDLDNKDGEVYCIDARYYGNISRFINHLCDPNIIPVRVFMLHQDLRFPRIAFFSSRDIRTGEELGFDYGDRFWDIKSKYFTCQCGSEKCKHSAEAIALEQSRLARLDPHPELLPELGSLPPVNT

[14] = target: T2, Histone-lysine N-methyltransferase EHMT2 (Homo sapiens); test: Inhibition of G9a (unknown origin) at 1 uM by AlphaLISA immunodetection assay relative to control
[15] = target: T1, Histone-lysine N-methyltransferase EHMT1/EHMT2 (Homo sapiens); test: Inhibition of G9a/GLP in human MDA-MB-231 cells assessed as reduction in H3K9 dimethylation at 20 uM incubated for 3 days by Western blotting analysis; type: cell-based; details: time 3.0 day
[16] = target: T3, Histone-lysine N-methyltransferase EHMT1 (Homo sapiens) (UniProt Q9H9B1); test: Inhibition of GLP (unknown origin) at 1 uM
T3 sequence (whole entry): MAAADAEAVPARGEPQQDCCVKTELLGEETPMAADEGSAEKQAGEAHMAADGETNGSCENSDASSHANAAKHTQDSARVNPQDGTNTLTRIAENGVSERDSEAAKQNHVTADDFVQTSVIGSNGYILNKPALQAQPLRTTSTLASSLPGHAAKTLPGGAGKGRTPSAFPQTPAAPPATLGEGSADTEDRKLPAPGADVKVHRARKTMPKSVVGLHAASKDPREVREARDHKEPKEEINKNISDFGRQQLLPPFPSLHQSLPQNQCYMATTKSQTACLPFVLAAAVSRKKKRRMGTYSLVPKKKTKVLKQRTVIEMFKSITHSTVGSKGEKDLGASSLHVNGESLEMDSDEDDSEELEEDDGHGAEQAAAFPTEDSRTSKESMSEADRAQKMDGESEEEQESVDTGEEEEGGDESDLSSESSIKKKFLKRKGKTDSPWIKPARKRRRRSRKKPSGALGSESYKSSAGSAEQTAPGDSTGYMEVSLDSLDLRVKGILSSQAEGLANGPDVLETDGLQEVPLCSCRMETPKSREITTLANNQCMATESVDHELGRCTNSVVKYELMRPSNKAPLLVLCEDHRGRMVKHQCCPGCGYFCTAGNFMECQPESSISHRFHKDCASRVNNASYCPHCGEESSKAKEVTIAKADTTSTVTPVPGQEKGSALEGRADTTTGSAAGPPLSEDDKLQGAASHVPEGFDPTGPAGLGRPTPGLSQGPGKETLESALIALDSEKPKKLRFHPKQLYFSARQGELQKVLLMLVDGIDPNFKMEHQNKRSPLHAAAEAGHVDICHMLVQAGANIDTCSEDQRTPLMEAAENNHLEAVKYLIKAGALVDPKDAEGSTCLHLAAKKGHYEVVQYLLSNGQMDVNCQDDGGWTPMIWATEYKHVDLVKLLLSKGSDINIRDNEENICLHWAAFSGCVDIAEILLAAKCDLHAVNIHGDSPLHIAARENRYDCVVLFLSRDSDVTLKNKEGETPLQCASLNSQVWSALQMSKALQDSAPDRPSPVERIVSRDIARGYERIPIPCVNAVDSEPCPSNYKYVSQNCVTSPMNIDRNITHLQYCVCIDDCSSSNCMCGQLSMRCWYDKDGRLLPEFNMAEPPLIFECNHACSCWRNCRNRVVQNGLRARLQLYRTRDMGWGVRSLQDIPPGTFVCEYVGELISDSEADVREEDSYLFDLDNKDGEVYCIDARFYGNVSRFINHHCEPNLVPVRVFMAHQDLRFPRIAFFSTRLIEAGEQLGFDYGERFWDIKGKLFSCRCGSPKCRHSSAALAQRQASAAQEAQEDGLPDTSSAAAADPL

[17] = Mus musculus, 4T1, read-out: IC50

## COc1cc2c(NC3CCN(C(C)C)CC3)nc(N3CCC(F)(F)CC3)nc2cc1OCCCN1CCCC1
[1]
  IC50: 990 nM
[2]; 4t1
  IC50: 1.55 µM
[3]
  IC50: 1000 nM
[4]
  inhibition: Active
[5]
  viability at 20 µM: 7.16%
[6]
  Activity: 72.11%
[7]
  Activity: 16.69%
[8]
  Activity: 4.04%
[9]
  inhibition: Dose-Dependent Effect
[10]
  Activity: inactive
[11]
  inhibition: inactive
[12]
  IC50 at 2 days: 6.99 µM

## CCC(=O)N1CC=C(c2nc(NC3CCN(C)CC3)c3cc(OC)c(OC)cc3n2)C1
[13]
  inhibition: inactive

## CCC(=O)N1CCC=C(c2nc(NC3CCN(C)CC3)c3cc(OC)c(OC)cc3n2)C1
[13]
  inhibition: inactive

## C=CC(=O)N1CCC=C(c2nc(NC3CCN(C(C)C)CC3)c3cc(OC)c(OC)cc3n2)C1
[14]
  inhibition: 7%
[1]
  IC50: 13400 nM
[2]; [17]
  IC50: 11.2 µM

## C=CC(=O)N1CC=C(c2nc(NC3CCN(Cc4ccccc4)CC3)c3cc(OC)c(OC)cc3n2)C1
[14]
  inhibition: 38%
[1]
  IC50: 1600 nM
[2]; [17]
  IC50: 8.96 µM

## CCC(=O)Nc1cccc(-c2nc(NC3CCN(C)CC3)c3cc(OC)c(OC)cc3n2)c1
[13]
  inhibition: inactive
[5]
  viability at 20 µM: 82.7%
[6]
  Activity: 8.69%
[7]
  Activity: 7.29%
[8]
  Activity: 1.32%
[15]
  inhibition: Active
[10]
  Activity: inactive

## C=CC(=O)Nc1ccc(C)c(-c2nc(NC3CCN(C(C)C)CC3)c3cc(OC)c(OC)cc3n2)c1
[1]
  IC50: 18300 nM
[2]; [17]
  IC50: 25.6 µM

## C=CC(=O)NC/C=C/c1nc(NC2CCN(C)CC2)c2cc(OC)c(OC)cc2n1
[1]
  IC50: > 30000 nM
[2]; [17]
  IC50: > 30 µM

## C=CC(=O)NC/C=C/c1nc(NC2CCN(Cc3ccccc3)CC2)c2cc(OC)c(OC)cc2n1
[14]
  inhibition: 60%
[1]
  IC50: 2070 nM
[2]; [17]
  IC50: 17.6 µM

## C=CC(=O)Nc1cccc(-c2nc(NC3CCN(C(C)C)CC3)c3cc(OC)c(OC)cc3n2)c1
[14]
  inhibition: 26%
[1]
  IC50: 1530 nM
[2]; [17]
  IC50: 10.4 µM

## C=CC(=O)N1CCC=C(c2nc(NC3CCN(Cc4ccccc4)CC3)c3cc(OC)c(OC)cc3n2)C1
[1]
  IC50: 10500 nM
[2]; [17]
  IC50: 28.6 µM

## C=CC(=O)N1CCC=C(c2nc(NC3CCN(C)CC3)c3cc(OC)c(OC)cc3n2)C1
[14]
  inhibition: 98%
[1]
  IC50: 3520 nM
[2]; [17]
  IC50: 8.94 µM
[16]
  inhibition: Active

## C=CC(=O)N1CC=C(c2nc(NC3CCN(C(C)C)CC3)c3cc(OC)c(OC)cc3n2)C1
[14]
  inhibition: 24%
[1]
  IC50: 1270 nM
[2]; [17]
  IC50: 28.1 µM

## C=CC(=O)N1CC=C(c2nc(NC3CCN(C)CC3)c3cc(OC)c(OC)cc3n2)C1
[14]
  inhibition: 98%
[1]
  IC50: 890 nM
[2]; [17]
  IC50: 10.4 µM
[16]
  inhibition: Active

## C=CC(=O)NC/C=C/c1nc(NC2CCN(C(C)C)CC2)c2cc(OC)c(OC)cc2n1
[14]
  inhibition: 56%
[1]
  IC50: 2260 nM
[2]; [17]
  IC50: > 30 µM

## COc1cc2nc(N3CCCN(C)CC3)nc(NC3CCN(Cc4ccccc4)CC3)c2cc1OC
[12]
  IC50 at 2 days: 4.28 µM
